Results taken from patent US20040191287A1, “Fumigation process for stored food grains” (priority 2003, published 2004).
Read-outs that look alike come from different tables or passages of the source.

Columns and labels:
[1] = system: R. dominica mixed-age cultures; settings: 72 hours at 26±2° C., 19.5 liter tin container with 12 kg wheat
From the text: (§4) Fumigation experiments with allyl acetate have been conducted in 19.5 litre capacity tin containers with mixed- age cultures of R. dominica, S. oryzae and T. castaneum as the test insects.
(§5) Mixed-age cultures of S. oryzae and R. dominica were obtained by allowing 300 adults of the individual species to breed in about 1 kg of wheat in a 2-liter glass jar. To obtain mixed- age culture of T. castaneum about 300 adults were released into 1 kg of whole-wheat flour plus 5% dried yeast in a 2-litre glass jar. The insect culture jars were kept under the rearing temperature conditions i.e., 25±1° C. for S. oryzae and T. castaneum and 30±1° C. for R. dominica.
(§6) The infested grain/flour after an incubation period of 7 weeks was used for the experiment. The cultures were weighed into 50 gm aliquots in 21 cm×14 cm size cloth bags. One set of three test insect bags comprising R. dominica, S. oryzae and T. castaneum were kept at the bottom of the container before filling the grain.
(§7) Another set of three-test insect bags was kept on the top layer of grains. The grain-filled containers were, then, fumigated with allyl acetate for 72 hours at 26±2° C. There were 6 doses ranging from 100 to 800 mg/litre with 3 replicates/dosage along with untreated controls. Required quantity of allyl acetate was measured in 10 and 25 ml measuring cylinder and quickly poured on to 5 gm of absorbent cotton wool kept over the grain layer in the tin container.
(§8) Immediately after dosing, the container was closed with the lid tightly and sealed along the rim with adhesive tape. At the end of 72 hour, the lid was removed to aerate the commodity and the test insect bags were retrieved and the contents transferred to 300 ml capacity glass bottles.
(§9) Insect survivors in the samples were recorded at weekly intervals for 8 weeks. Mortality in fumigated batches was calculated based on emergence/survivors in controls.

[2] = system: R. dominica mixed-age cultures; experiment: Fumigation in 125 litre plastic drums with 100 kg wheat, with/without perforated tubing (Example 6); type: in vivo, Rhyzopertha dominica; settings: for Insect Survivors / mortality at 200 µg/mL: R. dominica, 200 mg/liter, 72 hours, 26 ± 2° C., 125 liter drum, 100 kg wheat; for mortality at 200 µg/mL: 72 h, read-out: % mortality based on survivors in untreated controls
Method: (§1) In another set of experiments, fumigations were carried out in the plastic drums with 100 kg […] acetate (27 ml of liquid) was dispensed at one location, that is, on the top layer of the grain. In both sets of experiments, there were 3 replicates for control and fumigated batches.
(§2) Insect mortality in fumigated batches was determined by taking into consideration of survivors in respective controls as 100%.

[3] = system: S. oryzae mixed-age cultures; settings: 72 hours at 26±2° C., 19.5 liter tin container with 12 kg wheat
From the text: as §4, §5, §6, §7, §8, §9

[4] = system: T. castaneum mixed-age cultures; experiment: Fumigation in 125 litre plastic drums with 100 kg wheat, with/without perforated tubing (Example 6); type: in vivo, Tribolium castaneum; settings: without perforated tubing, 200 mg/liter, 26 ± 2° C., 125 liter drum; for mortality at 200 µg/mL: Tribolium castaneum, 72 h, read-out: % mortality based on survivors in untreated controls; for Insect Survivors: 72 hours
Method: In another set of experiments, fumigations were carried out in the plastic drums with 100 kg of wheat under similar conditions mentioned above except that there was no perforated tubing inserted into the grain and the total dose of allyl acetate (27 ml of liquid) was dispensed at one location, that is, on the top layer of the grain. In both sets of experiments, there were 3 replicates for control and fumigated batches.
as §2

[5] = cited from earlier work
[6] = system: S. oryzae mixed-age cultures; settings: 200 mg/liter, 26 ± 2° C., 19.5 liter tin container with 12 kg of wheat
Method: (§10) Further fumigation tests were carried out with allyl acetate at 200 mg/litre and with three different exposure periods of 24, 48 and 72 hours in 19.5 litre tin containers filled with 12 kg of wheat. Mixed- age cultures of R. dominica, S. oryzae and T. castaneum were used as the test insects.
(§11) Mixed-age cultures of S. oryzae and R. dominica were obtained by allowing 300 adults of the individual species to breed in about 1 kg of wheat in a 2-liter glass jar. To obtain mixed- age culture of T. castaneum about 300 adults were released into 1 kg of whole-wheat flour plus 5% dried yeast in a 2-litre glass jar. The insect culture jars were kept under the rearing temperature conditions i.e., 25±1° C. for S. oryzae and T. castaneum and 30±1° C. for R. dominica. The infested grain/flour after an incubation period of 7 weeks was used for the experiment. The cultures were weighed into 50 gm aliquots in 21 cm×14 cm size cloth bags. One set of three test insect bags comprising R. dominica, S. oryzae and T. castaneum were kept at the bottom of the container before filling the grain. […] Another set of three-test insect bags was kept on the top layer of grains. The grain-filled containers were, then, fumigated with allyl acetate for 24, 48 and 72 hours at 26±2° C. The commodity was treated with allyl acetate at the dosage of 200 mg/litre. Required quantity of allyl acetate was measured in 10 and 25 ml measuring cylinder and quickly poured on to 5 gm of absorbent cotton wool kept over the grain layer in the tin container. Immediately after dosing, the container was closed with the lid tightly and sealed along the rim with adhesive tape. At the end of the exposure period, the lid was removed to aerate the commodity and the test insect bags were retrieved and the contents transferred to 300 ml capacity glass bottles. Insect survivors in the samples were recorded at weekly intervals for 8 weeks. Mortality in fumigated batches was calculated based on emergence/survivors in controls.

[7] = system: T. castaneum mixed-age cultures; settings: 200 mg/liter, 26 ± 2° C., 19.5 liter tin container with 12 kg of wheat
Method: as §10, §11

rat = settings: 1 hr; cited from earlier work
Rhyzopertha dominica = experiment: LD 50 / LD 99 of allyl acetate to adults, probit analysis (Example 2); type: in vivo; settings: R. dominica adults, 24-hour exposure at 26 ± 2° C.
Method: (§3) Assays with allyl acetate against the adults of four species of stored grain insects namely S. oryzae, R. dominica, T. castaneum and Cryptolestes sp. were carried out to determine LD 50 and LD 99 doses. […] Cryptolestes sp. was reared on wheat feed. […] The insects were exposed to different doses of allyl acetate for 24 hour in 0.85-liter desiccators to yield 20-100% mortality. There were 6 replicates for each dose along with equal number of untreated control. […] Mortality of treated insects was assessed at the end of 14 days and it was corrected for natural control mortality. The data for the individual species were subjected to probit analysis following the method of Finney (1971) to arrive at LD 50 and LD 99 values.

Sitophilus oryzae = experiment: as above; type: in vivo; settings: S. oryzae adults, 24-hour exposure at 26 ± 2° C.
Method: as §3

Tribolium castaneum = experiment: as above; type: in vivo; settings: T. castaneum adults, 24-hour exposure at 26 ± 2° C.
Method: as §3

[8] = system: S. oryzae mixed-age cultures; experiment: Fumigation in 125 litre plastic drums with 100 kg wheat, with/without perforated tubing (Example 6); type: in vivo, Sitophilus oryzae; settings: for Insect Survivors / mortality at 200 µg/mL: S. oryzae, 200 mg/liter, 72 hours, 26 ± 2° C., 125 liter drum, 100 kg wheat; for mortality at 200 µg/mL: 72 h, read-out: % mortality based on survivors in untreated controls
Method: as §1, §2

[9] = system: T. castaneum mixed-age cultures; experiment: as above; type: in vivo, Tribolium castaneum; settings: for Insect Survivors / mortality at 200 µg/mL: T. castaneum, with perforated tubing, 200 mg/liter, 72 hours, 26 ± 2° C., 125 liter drum, 100 kg wheat; for mortality at 200 µg/mL: 72 h, read-out: % mortality based on survivors in untreated controls
[10] = with perforated tubing, test insect bag at bottom layer
[11] = with perforated tubing, test insect bag at middle layer
[12] = with perforated tubing, test insect bag at top layer
[13] = without perforated tubing, test insect bag at bottom layer
[14] = without perforated tubing, test insect bag at middle layer
[15] = without perforated tubing, test insect bag at top layer
[16] = test insect bag at bottom layer
[17] = test insect bag at middle layer

C=CCOC(C)=O [allyl acetate]
% mortality based on survivors in controls ([1]; 100 mg/liter): (100) % | No. of survivors from 50 g lots of mixed-age cultures following treatment ([1]; 100 mg/liter): 0 | % mortality based on survivors in controls ([1]; 150 mg/liter): (100) % | No. of survivors from 50 g lots of mixed-age cultures following treatment ([1]; 150 mg/liter): 0 | % mortality based on survivors in controls ([1]; 200 mg/liter): (100) % | No. of survivors from 50 g lots of mixed-age cultures following treatment ([1]; 200 mg/liter): 0 | % mortality based on survivors in controls ([1]; 400 mg/liter): (100) % | No. of survivors from 50 g lots of mixed-age cultures following treatment ([1]; 400 mg/liter): 0 | % mortality based on survivors in controls ([1]; 600 mg/liter): (100) % | No. of survivors from 50 g lots of mixed-age cultures following treatment ([1]; 600 mg/liter): 0 | % mortality based on survivors in controls ([1]; 800 mg/liter): (100) % | No. of survivors from 50 g lots of mixed-age cultures following treatment ([1]; 800 mg/liter): 0 | Insect Survivors [2, 10]: 0 | Insect Survivors [2, 11]: 0 | Insect Survivors [2, 12]: 0 | Insect Survivors [2, 13]: 0.67 | Insect Survivors [2, 14]: 0 | Insect Survivors [2, 15]: 0 | mortality at 200 µg/mL ([2]; Rhyzopertha dominica, with perforated tubing, bottom layer): 100% | mortality at 200 µg/mL ([2]; Rhyzopertha dominica, with perforated tubing, middle layer): 100% | mortality at 200 µg/mL ([2]; Rhyzopertha dominica, with perforated tubing, top layer): 100% | mortality at 200 µg/mL ([2]; Rhyzopertha dominica, without perforated tubing, bottom layer): 99.6% | mortality at 200 µg/mL ([2]; Rhyzopertha dominica, without perforated tubing, middle layer): 100% | mortality at 200 µg/mL ([2]; Rhyzopertha dominica, without perforated tubing, top layer): 100% | dosage for 100% kill of all stages ([2]; Rhyzopertha dominica, all stages, preferred exposure period 72 hours): 200 mg per litre of space | % mortality based on survivors in controls ([3]; 100 mg/liter): (98.9) % | No. of survivors from 50 g lots of mixed-age cultures following treatment ([3]; 100 mg/liter): 11.5 | % mortality based on survivors in controls ([3]; 150 mg/liter): (99.9) % | No. of survivors from 50 g lots of mixed-age cultures following treatment ([3]; 150 mg/liter): 1 | % mortality based on survivors in controls ([3]; 200 mg/liter): (100) % | No. of survivors from 50 g lots of mixed-age cultures following treatment ([3]; 200 mg/liter): 0 | % mortality based on survivors in controls ([3]; 400 mg/liter): (100) % | No. of survivors from 50 g lots of mixed-age cultures following treatment ([3]; 400 mg/liter): 0 | % mortality based on survivors in controls ([3]; 600 mg/liter): (100) % | No. of survivors from 50 g lots of mixed-age cultures following treatment ([3]; 600 mg/liter): 0 | % mortality based on survivors in controls ([3]; 800 mg/liter): (100) % | No. of survivors from 50 g lots of mixed-age cultures following treatment ([3]; 800 mg/liter): 0 | mortality at 200 µg/mL ([4]; bottom layer): 0% | mortality at 200 µg/mL ([4]; middle layer): 100% | mortality at 200 µg/mL ([4]; top layer): 99.4% | Insect Survivors [4, 16]: 39.00 | Insect Survivors [4, 17]: 0 | Insect Survivors ([4]; test insect bag at top layer): 0.33 | Mammalian Toxicity (irritation) ([5]; eyes, respiratory system and skin): Irritating to eyes, respiratory | Mammalian Toxicity ([5]; routes of toxicity: inhalation, contact and ingestion): Toxic by inhalation, | % mortality based on survivors in controls ([6]; exposure period 24 hour): (99.9) % | No. of survivors from 50 g lots of mixed-age cultures following treatment ([6]; exposure period 24 hour): 0.33 | % mortality based on survivors in controls ([6]; exposure period 48 hour): (99.9) % | No. of survivors from 50 g lots of mixed-age cultures following treatment ([6]; exposure period 48 hour): 0.33 | % mortality based on survivors in controls ([6]; exposure period 72 hour): (100) % | No. of survivors from 50 g lots of mixed-age cultures following treatment ([6]; exposure period 72 hour): 0 | % mortality based on survivors in controls ([7]; exposure period 24 hour): (100) % | No. of survivors from 50 g lots of mixed-age cultures following treatment ([7]; exposure period 24 hour): 0 | % mortality based on survivors in controls ([7]; exposure period 48 hour): (100) % | No. of survivors from 50 g lots of mixed-age cultures following treatment ([7]; exposure period 48 hour): 0 | % mortality based on survivors in controls ([7]; exposure period 72 hour): (100) % | No. of survivors from 50 g lots of mixed-age cultures following treatment ([7]; exposure period 72 hour): 0 | LC 50 rat inhalation (rat): LC 50 rat inhalation 1000 ppm/1 hr | LD 50 (mg/Liter) (Rhyzopertha dominica): 1.69 (1.30; 2.02) mg/Liter | LD 99 (mg/Liter) (Rhyzopertha dominica): 7.56 (5.81; 11.67) mg/Liter | LD 50 (mg/Liter) (Sitophilus oryzae): 4.08 (3.70; 4.42) mg/Liter | LD 99 (mg/Liter) (Sitophilus oryzae): 12.81 (10.90; 16.15) mg/Liter | LD 50 (mg/Liter) (Tribolium castaneum): 6.14 (5.33; 6.80) mg/Liter | LD 99 (mg/Liter) (Tribolium castaneum): 11.42 (9.85; 14.92) mg/Liter | Insect Survivors [8, 10]: 0 | Insect Survivors [8, 11]: 0 | Insect Survivors [8, 12]: 0 | Insect Survivors [8, 13]: 22.33 | Insect Survivors [8, 14]: 0.33 | Insect Survivors [8, 15]: 0 | mortality at 200 µg/mL ([8]; Sitophilus oryzae, with perforated tubing, bottom layer): 100% | mortality at 200 µg/mL ([8]; Sitophilus oryzae, with perforated tubing, middle layer): 100% | mortality at 200 µg/mL ([8]; Sitophilus oryzae, with perforated tubing, top layer): 100% | mortality at 200 µg/mL ([8]; Sitophilus oryzae, without perforated tubing, bottom layer): 95.3% | mortality at 200 µg/mL ([8]; Sitophilus oryzae, without perforated tubing, middle layer): 99.9% | mortality at 200 µg/mL ([8]; Sitophilus oryzae, without perforated tubing, top layer): 100% | dosage for 100% kill of all stages ([8]; Sitophilus oryzae, all stages, preferred exposure period 72 hours): 200 mg per litre of space | Insect Survivors [9, 16]: 0 | Insect Survivors [9, 17]: 0 | Insect Survivors ([9]; test insect bag at top layer): 0 | mortality at 200 µg/mL ([9]; Tribolium castaneum, bottom layer): 100% | mortality at 200 µg/mL ([9]; Tribolium castaneum, middle layer): 100% | mortality at 200 µg/mL ([9]; Tribolium castaneum, top layer): 100% | dosage for 100% kill of all stages ([9]; Tribolium castaneum, all stages, preferred exposure period 72 hours): 200 mg per litre of space
